Laboratory results reported in ChEMBL document CHEMBL1143144, “Antitumor studies. Part 4: Design, synthesis, antitumor activity, and molecular docking study of novel 2-substituted 2-deoxoflavin-5-oxides, 2-deoxoalloxazine-5-oxides, and their 5-deaza analogs” (Bioorg Med Chem, 2008).
In brackets after ≈: the same amount, converted by molar mass.

Assays:
CCRF-HSB-2 = assay: Antitumor activity against human CCRF-HSB2 cells by MTT assay; assay type: functional, cell-based
KB = assay: Antitumor activity against human KB cells by MTT assay; assay type: functional, cell-based

Row | IC50 (CCRF-HSB-2) | IC50 (KB) | SMILES
1 | 23.2 µg/mL (≈ 95.4 µM) | 44.1 µg/mL (≈ 181 µM) | CSc1nc2nc3ccccc3cc2c(=O)[nH]1
2 | 1.46 µg/mL (≈ 5.06 µM) | 0.61 µg/mL (≈ 2.12 µM) | CSc1nc2n(C)c3c(C)cccc3[n+]([O-])c-2c(=O)n1
3 | 9.84 µg/mL (≈ 32.3 µM) | 11 µg/mL (≈ 36.1 µM) | COc1ccc2c(c1)[n+]([O-])c1c(=O)nc(SC)nc-1n2C
4 | 10 µg/mL (≈ 32.9 µM) | 12.5 µg/mL (≈ 41.1 µM) | COc1ccc2c(c1)n(C)c1nc(SC)nc(=O)c-1[n+]2[O-]
5 | 17.1 µg/mL (≈ 59.3 µM) | 27.7 µg/mL (≈ 96.1 µM) | CSc1nc2n(C)c3ccc(C)cc3[n+]([O-])c-2c(=O)n1
6 | 1.56 µg/mL (≈ 5.69 µM) | 1.44 µg/mL (≈ 5.25 µM) | CSc1nc2n(C)c3ccccc3[n+]([O-])c-2c(=O)n1
7 | 2.7 µg/mL (≈ 11.2 µM) | 14.5 µg/mL (≈ 60.3 µM) | CNc1nc2n(C)c3ccccc3cc-2c(=O)n1
8 | 1.57 µg/mL (≈ 6.48 µM) | 1.89 µg/mL (≈ 7.8 µM) | CCn1c2nc(=O)[nH]c(=O)c-2nc2ccccc21
9 | 5.9 µg/mL (≈ 18.6 µM) | 10 µg/mL (≈ 31.6 µM) | CCn1c(SC)nc2nc3c(C)cc(C)cc3[n+]([O-])c2c1=O
10 | 1.46 µg/mL (≈ 4.85 µM) | 1.7 µg/mL (≈ 5.64 µM) | Cc1ccc2c(c1)[n+]([O-])c1c(=O)nc(NCCO)nc-1n2C
11 | 8.63 µg/mL (≈ 31.5 µM) | 9.31 µg/mL (≈ 33.9 µM) | CSc1nc2nc3ccccc3[n+]([O-])c2c(=O)n1C
12 | 51.2 µg/mL (≈ 212 µM) | 63.1 µg/mL (≈ 262 µM) | CN(C)c1nc2nc3ccccc3nc2c(=O)[nH]1
13 | 41.4 µg/mL (≈ 132 µM) | 71.7 µg/mL (≈ 229 µM) | COc1ccc2nc3nc(N4CCOCC4)[nH]c(=O)c3nc2c1
14 | 6.66 µg/mL (≈ 21.6 µM) | 10.8 µg/mL (≈ 35 µM) | CSc1nc2n(C)c3ccc(Cl)cc3[n+]([O-])c-2c(=O)n1
15 | 34.2 µg/mL (≈ 98.7 µM) | 54.8 µg/mL (≈ 158 µM) | CCOC(=O)Cn1c(SC)nc2nc3ccccc3[n+]([O-])c2c1=O
16 | 5.86 µg/mL (≈ 21.4 µM) | 5.8 µg/mL (≈ 21.1 µM) | CSc1nc2nc3ccc(C)cc3[n+]([O-])c2c(=O)[nH]1

Row | IC50 (CCRF-HSB-2) | IC50 (KB) | SMILES
17 | 6.29 µg/mL (≈ 21.8 µM) | 11.8 µg/mL (≈ 40.9 µM) | CSc1nc2nc3c(C)cc(C)cc3[n+]([O-])c2c(=O)[nH]1
18 | 4.11 µg/mL (≈ 14.2 µM) | 5.35 µg/mL (≈ 18.4 µM) | COc1ccc2nc3nc(SC)[nH]c(=O)c3[n+]([O-])c2c1
19 | 14.3 µg/mL (≈ 47.3 µM) | 30 µg/mL (≈ 99.2 µM) | CSc1nc2n(C)c3cc(C)c(C)cc3[n+]([O-])c-2c(=O)n1
20 | 1.74 µg/mL (≈ 6.76 µM) | 6.93 µg/mL (≈ 26.9 µM) | CNc1nc2n(C)c3ccccc3[n+]([O-])c-2c(=O)n1
21 | 6 µg/mL (≈ 19.1 µM) | 8.1 µg/mL (≈ 25.8 µM) | CCn1c2nc(NCC(C)C)nc(=O)c-2[n+]([O-])c2ccccc21
22 | 1.8 µg/mL (≈ 7.89 µM) | 2.1 µg/mL (≈ 9.2 µM) | Cn1c2nc(=O)[nH]c(=O)c-2nc2ccccc21
23 | 3.72 µg/mL (≈ 12.9 µM) | 8.19 µg/mL (≈ 28.4 µM) | CCn1c2nc(SC)nc(=O)c-2[n+]([O-])c2ccccc21
24 | 6.77 µg/mL (≈ 26 µM) | 6.76 µg/mL (≈ 26 µM) | CSc1nc2nc3ccccc3[n+]([O-])c2c(=O)[nH]1
25 | 5.1 µg/mL (≈ 18.6 µM) | 6.2 µg/mL (≈ 22.6 µM) | COc1ccc2c(c1)[n+]([O-])c1c(=O)[nH]c(=O)nc-1n2C
26 | 34.7 µg/mL (≈ 115 µM) | 46.3 µg/mL (≈ 153 µM) | CCn1c2nc(SC)nc(=O)c-2[n+]([O-])c2cc(C)ccc21
27 | 7.1 µg/mL (≈ 20.9 µM) | 33.7 µg/mL (≈ 99.3 µM) | Cc1ccc2c(c1)[n+]([O-])c1c(=O)nc(NC3CCCCC3)nc-1n2C
28 | 6.18 µg/mL (≈ 18.1 µM) | 27.6 µg/mL (≈ 80.9 µM) | COc1ccc2c(c1)[n+]([O-])c1c(=O)nc(N3CCCCC3)nc-1n2C
29 | 7.74 µg/mL (≈ 26.8 µM) | 13.4 µg/mL (≈ 46.5 µM) | CSc1nc2nc3ccc(C)cc3[n+]([O-])c2c(=O)n1C
30 | 8.96 µg/mL (≈ 29.6 µM) | 14.2 µg/mL (≈ 47 µM) | CSc1nc2nc3c(C)cc(C)cc3[n+]([O-])c2c(=O)n1C
31 | 0.047 µg/mL (≈ 0.193 µM) | 0.23 µg/mL (≈ 0.946 µM) | Nc1ccn([C@@H]2O[C@H](CO)[C@@H](O)[C@@H]2O)c(=O)n1 [CYTARABINE]
